Results: PubChem BioAssay AID330 (DTP/NCI, 2004)
Values joined by “and” are separate entries in the source; they are usually repeats but may differ in a detail not shown here. Equal entries are not always repeated. Inconclusive results and toxic doses are left out. The calls were made as follows: active = survival T/C of 150% or more; inactive = T/C below 125% in these data.

Tested on: P388 leukemia ip, CD2F1 mice, survival T/C
Assay: NCI In Vivo Anticancer Drug Screen. Data for tumor model P388 Leukemia (intraperitoneal) in CD2F1 (CDF1) mice
Conditions: endpoint: median survival time, higher = longer survival
Method in brief: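 Mice carrying the transplanted tumor received test compound or vehicle. Survival was recorded in each group, and the value is the treated-group measurement divided by that of the vehicle-treated control group.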

[1] = dose: 15.0 mg/kg/injection, schedule: Q01DX005 (ip), vehicle: saline with Tween-80
[2] = dose: 30.0 mg/kg/injection, schedule: Q01DX005 (ip), vehicle: saline with Tween-80
[3] = dose: 60.0 mg/kg/injection, schedule: Q01DX005 (ip), vehicle: saline with Tween-80
[4] = dose: 50.0 mg/kg/injection, schedule: Q01DX009 (ip), vehicle: Klucel (hydroxypropylcellulose) (HPC)
[5] = dose: 100.0 mg/kg/injection, schedule: Q01DX009 (ip), vehicle: Klucel (hydroxypropylcellulose) (HPC)
[6] = dose: 200.0 mg/kg/injection, schedule: Q01DX009 (ip), vehicle: Klucel (hydroxypropylcellulose) (HPC)
[7] = dose: 50.0 mg/kg/injection, schedule: Q01DX005 (ip), vehicle: saline
[8] = dose: 120.0 mg/kg/injection, schedule: Q01DX005 (ip), vehicle: saline with Tween-80
[9] = dose: 240.0 mg/kg/injection, schedule: Q01DX005 (ip), vehicle: saline with Tween-80
[10] = dose: 100.0 mg/kg/injection, schedule: Q01DX005 (ip), vehicle: saline
[11] = dose: 200.0 mg/kg/injection, schedule: Q01DX005 (ip), vehicle: saline
[12] = dose: 100.0 mg/kg/injection, schedule: Q04DX003 (ip), vehicle: saline with Tween-80
[13] = dose: 200.0 mg/kg/injection, schedule: Q04DX003 (ip), vehicle: saline with Tween-80
[14] = dose: 50.0 mg/kg/injection, schedule: Q01DX009 (ip), vehicle: saline with Tween-80
[15] = dose: 100.0 mg/kg/injection, schedule: Q01DX009 (ip), vehicle: saline with Tween-80

Measured: T/C

CN1C(=O)CC2(C)C1=CCc1scnc12 (configuration not stated)
inactive: dose: 7.5 mg/kg/injection, schedule: Q01DX005 (ip), vehicle: saline with Tween-80 94 % of control | [1] 99 % of control | [2] 99 % of control

O=c1c2c(oc3ccccc13)Oc1oc3ccccc3c(=O)c1C2c1ccc2c(c1)OCO2
inactive: [1] 96 % of control | [2] 92 % of control and 96 % of control | [3] 91 % of control

Fc1ccc(NC(=S)SCc2ccccc2)cc1
inactive: dose: 50.0 mg/kg/injection, schedule: Q01DX009 (ip), vehicle: suspension in saline 101 % of control | dose: 100.0 mg/kg/injection, schedule: Q01DX009 (ip), vehicle: suspension in saline 101 % of control | dose: 200.0 mg/kg/injection, schedule: Q01DX009 (ip), vehicle: suspension in saline 101 % of control

COC(=O)CS(=O)(=O)CCS(=O)(=O)CC(=O)OC
inactive: dose: 12.5 mg/kg/injection, schedule: Q01DX009 (ip), vehicle: saline 99 % of control and 100 % of control | dose: 25.0 mg/kg/injection, schedule: Q01DX009 (ip), vehicle: saline 94 % of control and 98 % of control | dose: 50.0 mg/kg/injection, schedule: Q01DX009 (ip), vehicle: saline 99 % of control and 124 % of control and 98 % of control | dose: 100.0 mg/kg/injection, schedule: Q01DX009 (ip), vehicle: saline 103 % of control and 104 % of control and 113 % of control | dose: 200.0 mg/kg/injection, schedule: Q01DX009 (ip), vehicle: saline 114 % of control

CSc1c(C(C)(C)O)cc(C(C)(C)C)cc1C(C)(C)O
inactive: [4] 93 % of control | [5] 93 % of control | [6] 94 % of control

O=C(OCCOCCN1CCCCC1)C1c2ccccc2Sc2ccc(Cl)cc21 (configuration not stated)
inactive: dose: 12.5 mg/kg/injection, schedule: Q01DX005 (ip), vehicle: saline 100 % of control | dose: 25.0 mg/kg/injection, schedule: Q01DX005 (ip), vehicle: saline 105 % of control | [7] 100 % of control and 98 % of control

O=C(COc1ccccc1)NC(=S)Nc1nccs1
inactive: [3] 96 % of control | [8] 93 % of control | [9] 102 % of control

Cc1nn(C(=O)c2ccncc2)c(C)c1N=Nc1ccc(-c2ccc(N)cc2)cc1
inactive: [4] 99 % of control | [5] 90 % of control | [6] 90 % of control

Oc1ccc(/C=C/c2cc(O)cc(O)c2)cc1
inactive: dose: 18.5 mg/kg/injection, schedule: Q01DX009 (ip), vehicle: Klucel (hydroxypropylcellulose) (HPC) 101 % of control | dose: 37.0 mg/kg/injection, schedule: Q01DX009 (ip), vehicle: Klucel (hydroxypropylcellulose) (HPC) 100 % of control | dose: 74.0 mg/kg/injection, schedule: Q01DX009 (ip), vehicle: Klucel (hydroxypropylcellulose) (HPC) 93 % of control

CN1C2CCC1C(Br)C(=O)C2 (configuration not stated)
inactive: [7] 100 % of control | [10] 108 % of control (2×) and 109 % of control | [11] 118 % of control

COc1ccc(C2C3=C(CCCC3=O)OC3=C2C(=O)CCC3)cc1
inactive: [3] 96 % of control | [8] 99 % of control | [9] 100 % of control

C/C(=C\c1ccccc1)c1ccccn1
inactive: [7] 99 % of control | [10] 105 % of control | [11] 113 % of control

CCCCOP(=O)(O)SP(=O)(O)OCCCC
inactive: dose: 100.0 mg/kg/injection, schedule: Q01DX001 (ip), vehicle: Klucel (hydroxypropylcellulose) (HPC) 103 % of control | dose: 100.0 mg/kg/injection, schedule: Q01DX001 (ip), vehicle: saline 103 % of control and 106 % of control and 98 % of control | dose: 100.0 mg/kg/injection, schedule: Q04DX003 (ip), vehicle: suspension in saline 105 % of control | dose: 200.0 mg/kg/injection, schedule: Q01DX001 (ip), vehicle: Klucel (hydroxypropylcellulose) (HPC) 119 % of control | dose: 200.0 mg/kg/injection, schedule: Q01DX001 (ip), vehicle: saline 106 % of control and 98 % of control and 103 % of control | dose: 200.0 mg/kg/injection, schedule: Q04DX003 (ip), vehicle: suspension in saline 105 % of control | dose: 400.0 mg/kg/injection, schedule: Q01DX001 (ip), vehicle: Klucel (hydroxypropylcellulose) (HPC) 104 % of control | dose: 400.0 mg/kg/injection, schedule: Q01DX001 (ip), vehicle: saline 106 % of control and 103 % of control and 94 % of control | dose: 400.0 mg/kg/injection, schedule: Q04DX003 (ip), vehicle: suspension in saline 110 % of control

CCC1=CC2CC(c3cc4c(cc3OC)N(C)C3C(O)(C(=O)NC)C(OC(C)=O)C5(CC)C=CCN6CCC43C65)c3[nH]c4ccccc4c3CCN(C1)C2 (configuration not stated)
inactive: dose: 0.06 mg/kg/injection, schedule: Q01DX009 (ip), vehicle: water 101 % of control | dose: 0.13 mg/kg/injection, schedule: Q01DX009 (ip), vehicle: water 101 % of control | dose: 0.25 mg/kg/injection, schedule: Q01DX009 (ip), vehicle: water 95 % of control | dose: 0.5 mg/kg/injection, schedule: Q01DX009 (ip), vehicle: water 89 % of control | dose: 1.0 mg/kg/injection, schedule: Q01DX009 (ip), vehicle: water 94 % of control | dose: 2.0 mg/kg/injection, schedule: Q01DX001 (ip), vehicle: water 103 % of control | dose: 2.0 mg/kg/injection, schedule: Q01DX009 (ip), vehicle: water 97 % of control | dose: 4.0 mg/kg/injection, schedule: Q01DX001 (ip), vehicle: water 99 % of control | dose: 8.0 mg/kg/injection, schedule: Q01DX001 (ip), vehicle: water 98 % of control | dose: 16.0 mg/kg/injection, schedule: Q01DX001 (ip), vehicle: water 94 % of control | dose: 25.0 mg/kg/injection, schedule: Q01DX001 (ip), vehicle: other 91 % of control | dose: 32.0 mg/kg/injection, schedule: Q01DX001 (ip), vehicle: water 100 % of control | dose: 100.0 mg/kg/injection, schedule: Q01DX001 (ip), vehicle: other 91 % of control | dose: 200.0 mg/kg/injection, schedule: Q01DX001 (ip), vehicle: other 94 % of control | dose: 400.0 mg/kg/injection, schedule: Q01DX001 (ip), vehicle: other 94 % of control

C=C1C(=O)OC2C1C(OC(=O)/C(=C/C)CO)CC(C)(O)C1CC=C(C)C21 (configuration not stated)
inactive: dose: 11.88 mg/kg/injection, schedule: Q01DX005 (ip), vehicle: Klucel (hydroxypropylcellulose) (HPC) 109 % of control | dose: 23.75 mg/kg/injection, schedule: Q01DX005 (ip), vehicle: Klucel (hydroxypropylcellulose) (HPC) 109 % of control | dose: 47.5 mg/kg/injection, schedule: Q01DX005 (ip), vehicle: Klucel (hydroxypropylcellulose) (HPC) 102 % of control

O=C(NC1CCCCC1)C(=NC1CCCCC1)c1cc(Cl)c(Cl)c(Cl)c1Cl
inactive: dose: 50.0 mg/kg/injection, schedule: Q04DX003 (ip), vehicle: saline with Tween-80 98 % of control | [12] 98 % of control | [13] 87 % of control

CCC(c1ccc(O)cc1)C(CC)c1ccc(OC)cc1 (configuration not stated)
inactive: [12] 104 % of control | [13] 86 % of control

CC(=O)O[C@@H]1C[C@H](O)[C@@]23COC(O)[C@H]1[C@@H]2C[C@@H](O)[C@@]1(C)C2C(=O)C[C@@H](c4ccoc4)[C@]2(C)CC[C@@H]13 (some centres not stated)
inactive: dose: 2.4 mg/kg/injection, schedule: Q01DX009 (ip), vehicle: Klucel (hydroxypropylcellulose) (HPC) 99 % of control | dose: 18.75 micrograms/kg/injection, schedule: Q01DX009 (ip), vehicle: Klucel (hydroxypropylcellulose) (HPC) 107 % of control | dose: 37.5 micrograms/kg/injection, schedule: Q01DX009 (ip), vehicle: Klucel (hydroxypropylcellulose) (HPC) 117 % of control | dose: 75.0 micrograms/kg/injection, schedule: Q01DX009 (ip), vehicle: Klucel (hydroxypropylcellulose) (HPC) 96 % of control | dose: 150.0 micrograms/kg/injection, schedule: Q01DX009 (ip), vehicle: Klucel (hydroxypropylcellulose) (HPC) 101 % of control

OC(c1ccccc1)(c1ccccc1)c1ccc(C[P+](c2ccccc2)(c2ccccc2)c2ccccc2)cc1
inactive: dose: 1.56 mg/kg/injection, schedule: Q01DX009 (ip), vehicle: other 101 % of control | dose: 3.13 mg/kg/injection, schedule: Q01DX009 (ip), vehicle: other 117 % of control

CCN(CC)CCNc1n[nH]c(=O)c2ccccc12
inactive: [14] 104 % of control | [15] 101 % of control | dose: 200.0 mg/kg/injection, schedule: Q01DX009 (ip), vehicle: saline with Tween-80 95 % of control

CC(C)=NOc1ccc([N+](=O)[O-])cc1[N+](=O)[O-]
inactive: [14] 96 % of control | [15] 108 % of control
